Data published in patent publication US6914045B2, “Glycopeptide antibiotics” (Wyeth Holdings Corporation, priority 2001, dated 2005).
In brackets after ≈: the same amount, converted by molar mass.

Columns and labels:
Assay in all cases: in vitro antibacterial evaluation, MIC by broth dilution
Format in all cases: cell-based
Enterococcus sp. = conditions: broth dilution, 18 hours at 35° C.
Method in brief: (§1)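 MIC, the lowest antibiotic concentration preventing growth, was read across 64-0.06 μg/mL with 5×10^5 CFU/mL inoculum. Method followed NCCLS M7-A2 broth dilution using Mueller-Hinton II; Gram-positive strains covered recent methicillin-, penicillin- and/or vancomycin-resistant clinical isolates.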

Escherichia coli = conditions: 18 hours at 35° C., strain ATCC 25922
Method in brief: as §1

Staphylococcus sp. = conditions: broth dilution, 18 hours at 35° C.
Method in brief: as §1

Streptococcus sp. = conditions: broth dilution, 18 hours at 35° C.
Method in brief: as §1

MIC Enterococcus avium (GC 4558) (Enterococcus sp.; Enterococcus avium (GC 4558)): 4 µg/mL (≈ 2.9 µM)
MIC Enterococcus faecalis (ATCC 29212) (Enterococcus sp.; Enterococcus faecalis (ATCC 29212)): 4 µg/mL (≈ 2.9 µM)
MIC Enterococcus faecalis (GC 2242) (Enterococcus sp.; Enterococcus faecalis (GC 2242)): 2 µg/mL (≈ 1.45 µM)
MIC Enterococcus faecalis (GC 4552) (Enterococcus sp.; Enterococcus faecalis (GC 4552)): 4 µg/mL (≈ 2.9 µM)
MIC Enterococcus faecalis (GC 4553) (Enterococcus sp.; Enterococcus faecalis (GC 4553)): 4 µg/mL (≈ 2.9 µM)
MIC Enterococcus faecalis (GC 4554) (Enterococcus sp.; Enterococcus faecalis (GC 4554)): 2 µg/mL (≈ 1.45 µM)
MIC Enterococcus faecium (GC 2243) (Enterococcus sp.; Enterococcus faecium (GC 2243)): 4 µg/mL (≈ 2.9 µM)
MIC Enterococcus faecium (GC 4556) (Enterococcus sp.; Enterococcus faecium (GC 4556)): 2 µg/mL (≈ 1.45 µM)
MIC Enterococcus faecium (GC 4557) (Enterococcus sp.; Enterococcus faecium (GC 4557)): 2 µg/mL (≈ 1.45 µM)
MIC Enterococcus faecalis (ATCC 29212) (Enterococcus sp.; strain ATCC 29212): 4 µg/mL (≈ 2.9 µM)
MIC Enterococcus faecalis (GC 2242) (Enterococcus sp.; strain GC 2242): 2 µg/mL (≈ 1.45 µM)
MIC Enterococcus faecium (GC 2243) (Enterococcus sp.; strain GC 2243): 4 µg/mL (≈ 2.9 µM)
MIC Enterococcus faecalis (GC 4552) (Enterococcus sp.; strain GC 4552): 4 µg/mL (≈ 2.9 µM)
MIC Enterococcus faecalis (GC 4553) (Enterococcus sp.; strain GC 4553): 4 µg/mL (≈ 2.9 µM)
MIC Enterococcus faecalis (GC 4554) (Enterococcus sp.; strain GC 4554): 2 µg/mL (≈ 1.45 µM)
MIC Enterococcus faecium (GC 4556) (Enterococcus sp.; strain GC 4556): 2 µg/mL (≈ 1.45 µM)
MIC Enterococcus faecium (GC 4557) (Enterococcus sp.; strain GC 4557): 2 µg/mL (≈ 1.45 µM)
MIC Enterococcus avium (GC 4558) (Enterococcus sp.; strain GC 4558): 4 µg/mL (≈ 2.9 µM)
MIC Escherichia coli (ATCC 25922) (Escherichia coli): 64 µg/mL (≈ 46.5 µM)
MIC Coagulase Negative Staphylococcus (GC 4547) (Staphylococcus sp.): 1 µg/mL (≈ 0.726 µM)
MIC Coagulase Negative Staphylococcus (GC 4548) (Staphylococcus sp.): 1 µg/mL (≈ 0.726 µM)
MIC Coagulase Negative Staphylococcus (GC 4549) (Staphylococcus sp.): 1 µg/mL (≈ 0.726 µM)
MIC Coagulase Negative Staphylococcus (GC 4551) (Staphylococcus sp.): 1 µg/mL (≈ 0.726 µM)
MIC Coagulase Negative Staphylococcus (ID-3941) (Staphylococcus sp.): 1 µg/mL (≈ 0.726 µM)
MIC Staphylococcus aureus (ATCC 29213) (Staphylococcus sp.): 1 µg/mL (≈ 0.726 µM)
MIC Staphylococcus aureus (GC 1131) (Staphylococcus sp.): 1 µg/mL (≈ 0.726 µM)
MIC Staphylococcus aureus (GC 4541) (Staphylococcus sp.): 1 µg/mL (≈ 0.726 µM)
MIC Staphylococcus aureus (GC 4542) (Staphylococcus sp.): 1 µg/mL (≈ 0.726 µM)
MIC Staphylococcus aureus (GC 4544) (Staphylococcus sp.): 2 µg/mL (≈ 1.45 µM)
MIC Staphylococcus aureus (GC 4545) (Staphylococcus sp.): 1 µg/mL (≈ 0.726 µM)
MIC Staphylococcus aureus-SMITH (GC 4543) (Staphylococcus sp.): 1 µg/mL (≈ 0.726 µM)
MIC Staphylococcus aureus (GC 1131) (Staphylococcus sp.; inoculum 5×10^5 CFU/mL, strain GC 1131): 1 µg/mL (≈ 0.726 µM)
MIC Staphylococcus aureus (ATCC 29213) (Staphylococcus sp.; strain ATCC 29213): 1 µg/mL (≈ 0.726 µM)
MIC Staphylococcus aureus (GC 4541) (Staphylococcus sp.; strain GC 4541): 1 µg/mL (≈ 0.726 µM)
MIC Staphylococcus aureus (GC 4542) (Staphylococcus sp.; strain GC 4542): 1 µg/mL (≈ 0.726 µM)
MIC Staphylococcus aureus (GC 4544) (Staphylococcus sp.; strain GC 4544): 2 µg/mL (≈ 1.45 µM)
MIC Staphylococcus aureus (GC 4545) (Staphylococcus sp.; strain GC 4545): 1 µg/mL (≈ 0.726 µM)
MIC Coagulase Negative Staphylococcus (GC 4547) (Staphylococcus sp.; strain GC 4547): 1 µg/mL (≈ 0.726 µM)
MIC Coagulase Negative Staphylococcus (GC 4548) (Staphylococcus sp.; strain GC 4548): 1 µg/mL (≈ 0.726 µM)
MIC Coagulase Negative Staphylococcus (GC 4549) (Staphylococcus sp.; strain GC 4549): 1 µg/mL (≈ 0.726 µM)
MIC Coagulase Negative Staphylococcus (GC 4551) (Staphylococcus sp.; strain GC 4551): 1 µg/mL (≈ 0.726 µM)
MIC Coagulase Negative Staphylococcus (ID-3941) (Staphylococcus sp.; strain ID-3941): 1 µg/mL (≈ 0.726 µM)
MIC Staphylococcus aureus-SMITH (GC 4543) (Staphylococcus sp.; strain SMITH GC 4543): 1 µg/mL (≈ 0.726 µM)
MIC Streptococcus agalactiae (GC 4564) (Streptococcus sp.; Streptococcus agalactiae (GC 4564)): <0.5 µg/mL
MIC Streptococcus pneumoniae (GC 4565) (Streptococcus sp.; Streptococcus pneumoniae (GC 4565)): <0.5 µg/mL
MIC Streptococcus pyogenes (ID-3187) (Streptococcus sp.; Streptococcus pyogenes (ID-3187)): <0.5 µg/mL
MIC Streptococcus agalactiae (GC 4564) (Streptococcus sp.; strain GC 4564): <0.5 µg/mL
MIC Streptococcus pneumoniae (GC 4565) (Streptococcus sp.; strain GC 4565): <0.5 µg/mL
MIC Streptococcus pyogenes (ID-3187) (Streptococcus sp.; strain ID-3187): <0.5 µg/mL
Compound: CC(c1ccccc1)C1NC(=O)CNC(=O)C(CO)NC(=O)C(C(O)C2CNC(=N)N2C2OC(CO)C(O)C(O)C2O)NC(=O)C(C(O)C2CNC(=N)N2)NC(=O)C(Cc2ccc(OC3OC(CO)C(OC4OC5COC(CC(C)(C)C)OC5C(O)C4O)C(O)C3O)cc2)NC1=O (stereo not drawn) [Example 110, Cyclo[glycyl-β-methylphenylalanyl-O-[4-O-[4,6-O-(3,3-dimethylbutylidene)hexopyranosyl]-hexopyranosyl]tyrosyl-3-(2-iminoimidazolidin-4-yl)seryl-3-(3-hexopyranosyl-2-iminoimidazolidin-4-yl)serylseryl]]
MIC Staphylococcus haemolyticus (GC 4546) (Staphylococcus sp.): 1 µg/mL (≈ 0.726 µM)
MIC Staphylococcus haemolyticus (GC 4546) (Staphylococcus sp.; strain GC 4546): 1 µg/mL (≈ 0.726 µM)
